Laboratory results as given in ChEMBL document CHEMBL5465560, “Selectivity Literature for EUbOPEN Chemogenomic Library” (2024).

Key:
[1] = biological target: Maternal embryonic leucine zipper kinase (Homo sapiens) (UniProt Q14680); conditions: at 10 µM
[2] = biological target: Cyclin-dependent kinase 17 (Homo sapiens) (UniProt Q00537); test: Selectivity interaction (KinomeScan (DiscoverX)) EUB0000229b CDK17; conditions: at 10 µM
[3] = biological target: SRSF protein kinase 3 (Homo sapiens) (UniProt Q9UPE1); test: Selectivity interaction (KinomeScan (DiscoverX)) EUB0000229b SRPK3; conditions: at 10 µM
SRSF protein kinase 3 (Homo sapiens), sequence (Q9UPE1 whole entry): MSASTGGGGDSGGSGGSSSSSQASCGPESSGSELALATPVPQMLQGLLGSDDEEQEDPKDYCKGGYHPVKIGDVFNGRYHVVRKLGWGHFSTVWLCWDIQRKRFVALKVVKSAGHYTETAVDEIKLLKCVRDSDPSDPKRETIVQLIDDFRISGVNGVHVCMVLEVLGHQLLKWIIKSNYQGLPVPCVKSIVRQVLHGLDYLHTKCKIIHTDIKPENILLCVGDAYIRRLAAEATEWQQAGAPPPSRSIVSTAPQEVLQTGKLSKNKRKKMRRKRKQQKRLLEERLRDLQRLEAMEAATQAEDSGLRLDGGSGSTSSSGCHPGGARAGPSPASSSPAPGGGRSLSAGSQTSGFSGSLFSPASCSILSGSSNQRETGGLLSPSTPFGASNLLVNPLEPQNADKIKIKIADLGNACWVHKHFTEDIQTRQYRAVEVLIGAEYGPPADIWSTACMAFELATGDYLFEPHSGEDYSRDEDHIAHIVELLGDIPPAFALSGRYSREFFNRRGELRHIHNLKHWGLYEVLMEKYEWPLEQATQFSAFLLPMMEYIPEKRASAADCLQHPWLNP

[4] = biological target: Serine/threonine-protein kinase PAK 6 (Homo sapiens) (UniProt Q9NQU5); test: Selectivity interaction (ProQinase) EUB0000171b PAK6; conditions: at 1 µM
Serine/threonine-protein kinase PAK 6 (Homo sapiens), sequence (Q9NQU5 whole entry, looked up): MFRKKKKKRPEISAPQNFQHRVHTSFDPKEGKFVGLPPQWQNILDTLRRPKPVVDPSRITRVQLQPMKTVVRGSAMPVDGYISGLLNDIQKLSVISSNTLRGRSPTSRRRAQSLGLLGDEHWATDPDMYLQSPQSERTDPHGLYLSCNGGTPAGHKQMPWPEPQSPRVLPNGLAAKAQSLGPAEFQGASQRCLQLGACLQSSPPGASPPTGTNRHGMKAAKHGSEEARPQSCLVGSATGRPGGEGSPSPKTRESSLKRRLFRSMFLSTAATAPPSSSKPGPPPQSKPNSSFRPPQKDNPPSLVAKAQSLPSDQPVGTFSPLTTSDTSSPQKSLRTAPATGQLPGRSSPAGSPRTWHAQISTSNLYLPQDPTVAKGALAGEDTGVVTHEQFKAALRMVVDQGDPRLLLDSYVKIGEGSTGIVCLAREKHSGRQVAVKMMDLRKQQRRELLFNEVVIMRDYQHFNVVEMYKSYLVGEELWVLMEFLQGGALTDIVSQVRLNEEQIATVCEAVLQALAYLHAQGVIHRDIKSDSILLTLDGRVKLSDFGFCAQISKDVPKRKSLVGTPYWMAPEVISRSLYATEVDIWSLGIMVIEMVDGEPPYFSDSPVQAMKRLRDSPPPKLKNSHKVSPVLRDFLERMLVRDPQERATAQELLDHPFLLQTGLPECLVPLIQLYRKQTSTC

[5] = biological target: T1, Ephrin type-B receptor 3 (Homo sapiens) (UniProt P54753); test: Selectivity interaction (Kinase panel (Z-LYTE Assay)) EUB0001632a EPHB3; conditions: at 10 µM
T1 sequence (whole entry): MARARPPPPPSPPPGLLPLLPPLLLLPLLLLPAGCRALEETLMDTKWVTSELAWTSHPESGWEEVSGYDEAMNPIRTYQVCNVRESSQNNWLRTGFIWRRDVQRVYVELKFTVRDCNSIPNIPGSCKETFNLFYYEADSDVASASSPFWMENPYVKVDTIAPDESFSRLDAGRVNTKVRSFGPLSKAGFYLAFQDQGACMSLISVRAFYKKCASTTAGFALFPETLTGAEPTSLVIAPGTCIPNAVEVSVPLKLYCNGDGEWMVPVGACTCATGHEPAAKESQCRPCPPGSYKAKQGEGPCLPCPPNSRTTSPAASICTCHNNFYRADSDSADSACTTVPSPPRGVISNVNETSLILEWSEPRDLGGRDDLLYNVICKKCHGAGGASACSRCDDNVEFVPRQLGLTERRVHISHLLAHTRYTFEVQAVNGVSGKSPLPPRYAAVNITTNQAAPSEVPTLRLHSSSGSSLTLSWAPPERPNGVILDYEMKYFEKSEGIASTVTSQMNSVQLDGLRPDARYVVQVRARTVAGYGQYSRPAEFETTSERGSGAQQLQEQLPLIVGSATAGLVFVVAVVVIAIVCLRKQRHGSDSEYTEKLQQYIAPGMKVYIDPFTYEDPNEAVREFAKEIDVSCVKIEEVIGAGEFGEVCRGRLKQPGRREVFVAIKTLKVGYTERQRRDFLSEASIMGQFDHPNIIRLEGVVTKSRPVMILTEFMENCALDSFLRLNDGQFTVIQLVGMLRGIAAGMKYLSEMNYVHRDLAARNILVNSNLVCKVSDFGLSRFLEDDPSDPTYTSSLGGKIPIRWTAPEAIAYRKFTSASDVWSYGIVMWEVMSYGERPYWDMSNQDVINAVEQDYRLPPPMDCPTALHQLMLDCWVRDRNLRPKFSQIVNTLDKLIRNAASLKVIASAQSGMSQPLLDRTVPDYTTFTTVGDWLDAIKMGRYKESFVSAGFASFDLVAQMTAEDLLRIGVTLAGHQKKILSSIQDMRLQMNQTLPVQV

[6] = biological target: T2, NUAK family SNF1-like kinase 1 (Homo sapiens) (UniProt O60285); test: Selectivity interaction (Adapta Assay) EUB0001632a NUAK1; conditions: at 10 µM
T2 sequence (whole entry): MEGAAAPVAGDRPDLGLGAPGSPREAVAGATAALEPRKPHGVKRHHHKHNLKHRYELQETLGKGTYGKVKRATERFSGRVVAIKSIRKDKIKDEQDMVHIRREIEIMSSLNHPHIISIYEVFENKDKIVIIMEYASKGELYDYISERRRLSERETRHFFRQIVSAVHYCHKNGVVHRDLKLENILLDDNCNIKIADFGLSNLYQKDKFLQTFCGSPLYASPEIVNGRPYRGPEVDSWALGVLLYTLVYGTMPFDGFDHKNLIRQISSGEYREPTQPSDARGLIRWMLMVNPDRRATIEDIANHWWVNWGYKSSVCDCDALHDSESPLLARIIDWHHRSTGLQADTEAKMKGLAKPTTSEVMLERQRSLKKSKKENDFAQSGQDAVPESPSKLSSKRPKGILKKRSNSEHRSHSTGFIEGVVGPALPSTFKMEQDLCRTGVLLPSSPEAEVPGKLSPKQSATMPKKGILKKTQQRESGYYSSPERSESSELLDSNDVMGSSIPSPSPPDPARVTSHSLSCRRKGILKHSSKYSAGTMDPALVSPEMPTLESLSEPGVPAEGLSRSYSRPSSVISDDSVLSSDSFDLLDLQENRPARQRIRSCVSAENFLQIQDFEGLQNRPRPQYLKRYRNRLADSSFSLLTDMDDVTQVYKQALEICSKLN

[7] = biological target: Phosphatidylinositol 4,5-bisphosphate 3-kinase catalytic subunit gamma isoform (Homo sapiens) (UniProt P48736); test: Selectivity interaction (KinomeScan (DiscoverX)) EUB0000045b PIK3CG; conditions: at 1 µM
Phosphatidylinositol 4,5-bisphosphate 3-kinase catalytic subunit gamma isoform (Homo sapiens), sequence (P48736 whole entry, looked up, canonical isoform): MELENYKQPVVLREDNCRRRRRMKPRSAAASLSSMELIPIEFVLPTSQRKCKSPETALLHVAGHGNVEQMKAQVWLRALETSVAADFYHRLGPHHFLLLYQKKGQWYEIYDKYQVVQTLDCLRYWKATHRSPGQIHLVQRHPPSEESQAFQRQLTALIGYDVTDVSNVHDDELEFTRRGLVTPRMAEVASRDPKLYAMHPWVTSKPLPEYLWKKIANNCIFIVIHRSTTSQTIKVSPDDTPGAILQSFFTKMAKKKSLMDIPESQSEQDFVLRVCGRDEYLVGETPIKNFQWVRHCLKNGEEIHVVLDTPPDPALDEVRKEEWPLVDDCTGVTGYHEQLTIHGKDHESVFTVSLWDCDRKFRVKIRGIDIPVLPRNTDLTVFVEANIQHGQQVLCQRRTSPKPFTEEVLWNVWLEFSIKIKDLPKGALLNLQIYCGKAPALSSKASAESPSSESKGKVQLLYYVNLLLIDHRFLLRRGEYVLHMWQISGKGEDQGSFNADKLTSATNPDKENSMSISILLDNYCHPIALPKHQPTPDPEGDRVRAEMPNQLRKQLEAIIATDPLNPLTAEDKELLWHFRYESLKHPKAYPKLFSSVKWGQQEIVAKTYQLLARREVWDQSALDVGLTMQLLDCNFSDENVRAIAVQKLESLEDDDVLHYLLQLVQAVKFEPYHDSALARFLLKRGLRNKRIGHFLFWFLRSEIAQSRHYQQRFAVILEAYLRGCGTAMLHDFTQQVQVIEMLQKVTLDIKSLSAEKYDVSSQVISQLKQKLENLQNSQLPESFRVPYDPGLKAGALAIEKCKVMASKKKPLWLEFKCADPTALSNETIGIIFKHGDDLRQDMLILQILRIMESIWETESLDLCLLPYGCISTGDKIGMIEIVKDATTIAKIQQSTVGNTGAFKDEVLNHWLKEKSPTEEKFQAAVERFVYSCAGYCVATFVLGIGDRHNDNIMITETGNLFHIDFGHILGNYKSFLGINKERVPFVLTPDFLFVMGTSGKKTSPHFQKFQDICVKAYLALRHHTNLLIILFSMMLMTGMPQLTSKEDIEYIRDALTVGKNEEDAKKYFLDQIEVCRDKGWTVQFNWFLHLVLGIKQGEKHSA

[8] = biological target: T3, Mitogen-activated protein kinase kinase kinase 2 (Homo sapiens) (UniProt Q9Y2U5); test: Selectivity interaction (KinomeScan (DiscoverX)) EUB0000045b MAP3K2
T3 sequence (whole entry): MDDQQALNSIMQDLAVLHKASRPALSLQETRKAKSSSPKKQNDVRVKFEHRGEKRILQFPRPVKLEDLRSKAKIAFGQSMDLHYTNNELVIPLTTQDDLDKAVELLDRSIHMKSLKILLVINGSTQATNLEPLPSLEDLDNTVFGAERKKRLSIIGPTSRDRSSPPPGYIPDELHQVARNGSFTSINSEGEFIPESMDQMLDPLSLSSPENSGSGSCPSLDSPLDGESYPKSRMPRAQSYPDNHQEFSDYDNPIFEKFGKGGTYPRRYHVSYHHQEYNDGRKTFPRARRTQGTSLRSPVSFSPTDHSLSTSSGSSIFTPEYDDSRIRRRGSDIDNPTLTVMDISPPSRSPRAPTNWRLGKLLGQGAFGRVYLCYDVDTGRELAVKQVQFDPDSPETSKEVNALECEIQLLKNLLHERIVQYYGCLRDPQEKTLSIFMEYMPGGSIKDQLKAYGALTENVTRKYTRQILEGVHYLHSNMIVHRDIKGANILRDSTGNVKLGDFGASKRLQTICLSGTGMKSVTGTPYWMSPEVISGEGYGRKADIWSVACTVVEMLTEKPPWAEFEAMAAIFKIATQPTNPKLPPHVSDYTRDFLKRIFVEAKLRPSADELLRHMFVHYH

[9] = biological target: Mitogen-activated protein kinase 11 (Homo sapiens) (UniProt Q15759); test: Selectivity interaction (KinomeScan (DiscoverX)) EUB0000618a MAPK11; conditions: at 10 µM
Mitogen-activated protein kinase 11 (Homo sapiens), sequence (Q15759 whole entry): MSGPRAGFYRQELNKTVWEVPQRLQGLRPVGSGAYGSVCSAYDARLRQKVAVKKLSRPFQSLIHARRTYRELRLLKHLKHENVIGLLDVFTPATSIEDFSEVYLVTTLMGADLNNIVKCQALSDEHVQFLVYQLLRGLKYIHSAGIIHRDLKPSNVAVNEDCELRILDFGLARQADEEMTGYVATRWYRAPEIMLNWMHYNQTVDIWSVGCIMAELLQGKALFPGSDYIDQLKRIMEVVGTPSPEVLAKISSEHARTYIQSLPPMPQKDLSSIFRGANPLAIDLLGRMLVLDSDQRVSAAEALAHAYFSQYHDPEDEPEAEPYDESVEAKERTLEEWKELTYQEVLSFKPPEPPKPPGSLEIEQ

[10] = biological target: Tyrosine-protein kinase Fyn (Homo sapiens) (UniProt P06241); test: Selectivity interaction (Ambit KINOMEscan and KiNATiv profiling in Jurkat cells) EUB0000090b FYN; format: cell-based; conditions: at 1 µM
Tyrosine-protein kinase Fyn (Homo sapiens), sequence (P06241 2-537 limits assumed): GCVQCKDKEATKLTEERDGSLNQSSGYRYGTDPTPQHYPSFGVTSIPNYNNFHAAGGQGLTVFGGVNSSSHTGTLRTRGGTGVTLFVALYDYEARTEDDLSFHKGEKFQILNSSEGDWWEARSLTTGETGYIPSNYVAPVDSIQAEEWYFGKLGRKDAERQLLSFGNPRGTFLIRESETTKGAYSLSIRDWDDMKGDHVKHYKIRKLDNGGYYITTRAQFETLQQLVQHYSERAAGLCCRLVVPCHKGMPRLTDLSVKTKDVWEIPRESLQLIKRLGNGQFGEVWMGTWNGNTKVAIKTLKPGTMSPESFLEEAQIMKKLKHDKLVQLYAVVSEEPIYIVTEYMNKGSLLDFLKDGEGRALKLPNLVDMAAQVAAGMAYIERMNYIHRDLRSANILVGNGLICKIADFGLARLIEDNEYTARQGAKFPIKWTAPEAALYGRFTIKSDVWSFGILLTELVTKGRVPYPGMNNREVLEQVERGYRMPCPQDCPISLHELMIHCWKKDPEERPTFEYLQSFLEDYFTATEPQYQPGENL

Maternal embryonic leucine zipper kinase (Homo sapiens), sequence (Q14680 whole entry, looked up): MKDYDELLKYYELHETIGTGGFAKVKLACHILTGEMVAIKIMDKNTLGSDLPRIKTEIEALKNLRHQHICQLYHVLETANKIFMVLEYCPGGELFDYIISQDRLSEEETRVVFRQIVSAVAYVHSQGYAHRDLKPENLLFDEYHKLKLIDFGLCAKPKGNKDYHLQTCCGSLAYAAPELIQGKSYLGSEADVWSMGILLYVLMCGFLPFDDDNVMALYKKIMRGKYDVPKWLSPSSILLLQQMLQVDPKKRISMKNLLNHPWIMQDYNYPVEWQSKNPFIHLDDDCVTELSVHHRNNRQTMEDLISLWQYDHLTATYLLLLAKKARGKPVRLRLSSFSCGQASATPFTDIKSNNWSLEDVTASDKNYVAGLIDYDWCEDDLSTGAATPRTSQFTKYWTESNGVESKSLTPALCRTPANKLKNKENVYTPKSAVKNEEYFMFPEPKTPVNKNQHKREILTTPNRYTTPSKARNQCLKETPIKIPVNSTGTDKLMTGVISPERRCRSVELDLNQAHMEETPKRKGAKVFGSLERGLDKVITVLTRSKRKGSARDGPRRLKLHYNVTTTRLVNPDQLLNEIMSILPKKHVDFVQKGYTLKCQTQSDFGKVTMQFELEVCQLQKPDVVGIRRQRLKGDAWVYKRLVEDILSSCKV
Cyclin-dependent kinase 17 (Homo sapiens), sequence (Q00537 whole entry, looked up): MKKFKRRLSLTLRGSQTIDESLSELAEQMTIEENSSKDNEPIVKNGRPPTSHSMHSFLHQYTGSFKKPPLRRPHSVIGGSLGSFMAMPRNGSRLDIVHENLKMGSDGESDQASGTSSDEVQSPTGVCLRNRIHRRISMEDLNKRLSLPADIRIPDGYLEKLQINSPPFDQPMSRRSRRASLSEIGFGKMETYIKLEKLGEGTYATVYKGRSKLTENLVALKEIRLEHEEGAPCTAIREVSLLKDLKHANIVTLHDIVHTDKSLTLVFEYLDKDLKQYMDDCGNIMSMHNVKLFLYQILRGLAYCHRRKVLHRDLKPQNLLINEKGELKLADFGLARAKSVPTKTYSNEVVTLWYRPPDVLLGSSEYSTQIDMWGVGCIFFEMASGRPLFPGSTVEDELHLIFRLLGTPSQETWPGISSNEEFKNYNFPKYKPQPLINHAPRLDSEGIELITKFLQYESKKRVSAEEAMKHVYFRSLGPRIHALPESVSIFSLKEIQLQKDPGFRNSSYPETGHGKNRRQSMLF

CCN(CC)CCCCNc1ncc2cc(-c3cc(OC)cc(OC)c3)c(NC(=O)NC(C)(C)C)nc2n1
% of control [1]: 100%

COc1cc(N(C)c2ccnc3ccc(C(F)(F)F)cc23)cc(OC)c1OC
% binding [2]: 88% | % binding [3]: 86%

C=CC(=O)Nc1cccc(C(=O)Nc2ccc(Nc3cc(-c4[nH]c(SC)nc4C)ccn3)cc2)c1
% of control [4]: 90%

Cn1cc(-n2cnc3c(NCc4nc5cc(Cl)c(Cl)cc5[nH]4)nc(N4CCOCC4)nc32)cn1
% of control [5]: 2.4% | % of inhibition [6]: 15.2%

C=CC(=O)Nc1cc(-n2c(=O)ccc3cnc4ccc(-c5ccc(NS(C)(=O)=O)cc5)cc4c32)ccc1C
% of control [7]: 2.8% | % of control ([8]; at 1 µM): 100% | % of control ([8]; at 10 µM): 100%

O[C@H]1CC[C@H](Nc2ncc3nc(Nc4c(F)cc(F)cc4F)n([C@H]4CCOC4)c3n2)CC1
% of control [9]: 24%

CN(C)C/C=C/C(=O)Nc1ccc(C(=O)N2CCCC(Nc3ncc(Cl)c(-c4c[nH]c5ccccc45)n3)C2)cc1 (stereo unspecified)
% of control [10]: 61%
